According to patent US8835632B2, “Methods to increase the photostability of dyes” (The University of North Carolina at Chapel Hill, priority 2007, dated 2014):

How the values were obtained:
[1] = Methylene Blue-sensitized photobleaching (reactivity of the dyes with singlet oxygen); type: physicochemical; conditions: methanol, [dye]=[Methylene Blue]=3.33 μM, filtered light λ>630 nm, 40 min
Method: The reactivity of the dyes with singlet oxygen also was examined to confirm that the cyano substituent group affected photobleaching mediated by singlet oxygen. Singlet oxygen was generated using the photosensitizer Methylene Blue (MB), which has a high quantum yield for singlet oxygen production and allows singlet oxygen to be introduced into the system without excitation of the merocyanine dye. See Murov and Carmichael, Handbook of Photochemistry, 2nd ed.; Dekker: New York (1993).
15 mL of a methanol solution containing dye (3.33 μM) and Methylene Blue (3.33 μM) were placed in a 20-mL Borosilicate Glass Scintillation Vial (Fisher Scientific). The vial was illuminated with the light of a 90 W halogen reflector lamp (120 V, 1280 Lumens, 12 Degree Beam Spread). […] The length of the filtering solution was 1.0 cm. The distance between the vial and the lamp was 11.0 cm. A fan (120 V, 150 mm)) was used to cool the vial. At selected time intervals a sample was removed and the sample absorbance spectrum was obtained on a Hewlett-Packard 8453 diode array spectrophotometer (Agilent, Technologies, Inc.). Rate constants of dye photobleaching were obtained from a plot of ln(A) vs. time (see Table 5).
Again, without wishing to be bound to any one particular theory, the greater reactivity of S-SO vs. I-SO toward singlet oxygen can be attributed to the greater electron donating capacity of the benzothiazole moiety relative to the indolenine ring system.

[2] = Absorption and fluorescence spectra, extinction coefficient, fluorescence quantum yield; type: physicochemical
Method: Absorption spectra were recorded on a Hewlett-Packard 8453 diode array UV-Vis spectrophotometer (Agilent Technologies, Inc., Santa Clara, Calif.), and fluorescence measurements were taken on a SPEX® Fluorolog 2 spectrofluorometer (HORIBA Jobin Yvon, Inc., Edison, N.J.). Melting points are not corrected. NMR spectra were obtained on a Varian Mercury 300 MHz (Varian, Inc., Palo Alto, Calif.) or on a Bruker 300 MHz DRX 300 spectrometer (Bruker Biospin Corp., Billerica, Mass.). Mass spectra were obtained on a Hewlett-Packard 1100 high-performance liquid chromatograph equipped with an 1100 mass selective detector (MS-ESI) (Agilent Technologies, Inc.).
With decreasing solvent polarity, the absorption maximum of dyes 1a-b, 2a-d shifted to longer wavelengths, and the intensity of the transition increased (Table 10, FIG. 11).
The SCRF/VSCRF predicted emission energies and the solute dipole moments before and after the vertical emission process are given in Table 16. The dipole moments of AI-BA(4) and AI-SO(4) are further decreased on the S1 surface after geometry relaxation (in MeOH solution), and then increased during the S1→S0 transition. This observation is consistent with the blue shifts of the emission bands of AI-BA(4) and AI-SO(4) with increasing solvent polarity from C6H6 to MeOH. By contrast, the dipole moment of I-SO further decreases after S1 state geometry relaxation, and then decreases during the vertical emission process. This observation also is in agreement with the red shift of the I-SO emission band with increasing solvent polarity from C6H6 to MeOH. Similarly to the absorption case, a negligible red shift (ΔEem=0.017 eV) was predicted for the emission band of I-TBA with increasing solvent polarity. A small red shift from C6H6 to DMF (with ΔEem=0.020 eV, or Δλmax=6 nm) is observed. The nearly equal emission energy observed in C6H6 and MeOH can again result in the explicit interactions between the solute and solvent molecules.

[3] = Relative rate of reaction with chemically generated singlet oxygen in DMSO; type: physicochemical; conditions: 2.5 mM, 1O2 from 1,4-dimethylnaphtalene-1,4-endoperoxide
Method: The bleaching rates for the dyes differed by two orders of magnitude. The relative rate constants kr (rel) for product formation during reaction with singlet oxygen were measured by comparing the percent conversions for dyes dissolved in DMSO containing a fixed amount of ^1O2 (2.5 mM solutions; ^1O2 generated by decomposition of 1,4-dimethylnaphtalene-1,4-endoperoxide). The rates were generally higher for dyes with a polar ground state (1a, 2a, 2b, 2d) than for the dyes with their ground state at the “cyanine limit” (3, 4). […] Olefins without allylic hydrogens react with singlet oxygen to form dioxetanes. Dioxetanes are unstable and decompose, to form two carbonyl compounds.

[4] = Photobleaching under constant illumination from a halogen tungsten lamp filtered through glass; type: physicochemical
Excerpt: The photostability of dyes can be important for applications in living cells. The mechanism of photobleaching for merocyanines of varying structure has been examined See Toutchkine et al., J. Am. Chem. Soc. 125:4132-4145 (2003). The photostability of the presently disclosed dyes was characterized by exposing them to constant illumination from a halogen tungsten lamp filtered through glass. This broad spectrum light source provided essentially equal intensity throughout the spectral range where the dyes absorb and where they would be irradiated in vivo (about 600 nm to about 650 nm).

[5] = from C6H6 to MeOH; cited from earlier work
[6] = MeOH, with respect to standard I-TBA in MeOH

Structure (SMILES): CCN1/C(=C(C#N)/C=C/C=C2/C(=O)c3ccccc3S2(=O)=O)Sc2ccccc21 [S-SO-CN, (2E,3E,5Z)-5-(1,1-dioxido-3-oxo-1-benzothien-2(3H)-ylidene)-2-(3-ethyl-1,3-benzothiazol-2(3H)-ylidene)pent-3-enenitrile]
- Bleaching on irradiation of Methylene Blue [1]: no bleaching
- Absorbance λmax ([2]; Butanol (BuOH)): 550 nm
- Emission λmax ([2]; Butanol (BuOH)): 599 nm
- Extinction coefficient ε ([2]; Butanol (BuOH)): 91000
- Fluorescence quantum yield Φ ([2]; Butanol (BuOH)): 0.16
- Absorbance λmax ([2]; Methanol (MeOH)): 547 nm
- Emission λmax ([2]; Methanol (MeOH)): 597 nm
- Extinction coefficient ε ([2]; Methanol (MeOH)): 95000
- Fluorescence quantum yield Φ ([2]; Methanol (MeOH)): 0.05

Structure (SMILES): Cn1c([O-])c(/C=C/C=C/c2cc[n+]3c(c2)C(C)(C)c2ccccc2-3)c(=O)n(C)c1=O [AI-BA]
- kr(rel) (relative rate constants for product formation during reaction with singlet oxygen produced chemically) [3]: 25.6
- Absorption energy Eabs Exp ([2]; C6H6): 1.873 eV
- Emission energy Eem Exp ([2]; C6H6): 1.851 eV
- Absorption energy Eabs Exp ([2]; MeOH): 2.120 eV
- Emission energy Eem Exp ([2]; MeOH): 2.006 eV
- Observed absorption (ε) ([2]; Table 10, BuOH): (154000)
- Observed absorption λmax ([2]; Table 10, BuOH): 615 nm
- Observed absorption (ε) ([2]; Table 10, C6H6): ±201000)
- Observed absorption λmax ([2]; Table 10, C6H6): 662 nm
- Observed absorption (ε) ([2]; Table 10, CH2Cl2): (224000)
- Observed absorption λmax ([2]; Table 10, CH2Cl2): 647 nm
- Observed absorption (ε) ([2]; Table 10, CH3CN): (141000)
- Observed absorption λmax ([2]; Table 10, CH3CN): 621 nm
- Observed absorption (ε) ([2]; Table 10, DMF): (146000)
- Observed absorption λmax ([2]; Table 10, DMF): 625 nm
- Observed absorption (ε) ([2]; Table 10, DMSO): (122000)
- Observed absorption λmax ([2]; Table 10, DMSO): 617 nm
- Observed absorption (ε) ([2]; Table 10, EtOH): (104000)
- Observed absorption λmax ([2]; Table 10, EtOH): 604 nm
- Observed absorption (ε) ([2]; Table 10, MeOH): (83000)
- Observed absorption λmax ([2]; Table 10, MeOH): 585 nm
- Observed absorption (ε) ([2]; Table 10, OcOH): (143000)
- Observed absorption λmax ([2]; Table 10, OcOH): 628 nm
- Observed absorption (ε) ([2]; Table 10, i-PrOH): (132000)
- Observed absorption λmax ([2]; Table 10, i-PrOH): 614 nm
- Absorption Exp wavelength ([2]; Table 12, C6H6): 662 nm
- Absorption Exp wavelength ([2]; Table 12, MeOH): 585 nm
- Observed emission (Φ) ([2]; Table 15, BuOH): 0.29
- Observed emission λmax ([2]; Table 15, BuOH): 654 nm
- Observed emission (Φ) ([2]; Table 15, C6H6): 0.01
- Observed emission λmax ([2]; Table 15, C6H6): 670 nm
- Observed emission (Φ) ([2]; Table 15, CH2Cl2): 0.03
- Observed emission λmax ([2]; Table 15, CH2Cl2): 664 nm
- Observed emission (Φ) ([2]; Table 15, CH3CN): 0.05
- Observed emission λmax ([2]; Table 15, CH3CN): 652 nm
- Observed emission (Φ) ([2]; Table 15, DMF): 0.26
- Observed emission λmax ([2]; Table 15, DMF): 658 nm
- Observed emission (Φ) ([2]; Table 15, DMSO): 0.23
- Observed emission λmax ([2]; Table 15, DMSO): 657 nm
- Observed emission (Φ) ([2]; Table 15, EtOH): 0.19
- Observed emission λmax ([2]; Table 15, EtOH): 651 nm
- Observed emission (Φ) ([2]; Table 15, MeOH): 0.52
- Observed emission λmax ([2]; Table 15, MeOH): 618 nm
- Observed emission (Φ) ([2]; Table 15, OcOH): 0.64
- Observed emission λmax ([2]; Table 15, OcOH): 656 nm
- Observed emission (Φ) ([2]; Table 15, i-PrOH): 0.22
- Observed emission λmax ([2]; Table 15, i-PrOH): 652 nm
- Eabs(MeOH)-Eabs(C6H6) Exp ([2]; blue shift of absorption band C6H6 to MeOH): 0.247 eV
- kph * 10^6 (absolute rate of photobleaching) ([4]; MeOH): 68 s^−1
- kph(rel) (relative rate of photobleaching) [4, 6]: 200

Structure (SMILES): CN1/C(=C/C=C/C=C2/C(=O)c3ccccc3S2(=O)=O)C(C)(C)c2ccccc21 [I-SO, (2Z)-2-[(2E,4E)-4-(1,3,3-trimethyl-1,3-dihydro-2H-indol-2-ylidene)but-2-en-1-ylidene]-1-benzothiophen-3(2H)-one 1,1-dioxide, reference compound]
- Bleaching on irradiation of Methylene Blue [1]: 27%
- kr(rel) (relative rate constants for product formation during reaction with singlet oxygen produced chemically) [3]: 5.24
- Absorbance λmax ([2]; Butanol (BuOH)): 587 nm
- Emission λmax ([2]; Butanol (BuOH)): 618 nm
- Extinction coefficient ε ([2]; Butanol (BuOH)): 134000
- Fluorescence quantum yield Φ ([2]; Butanol (BuOH)): 0.2
- Absorption energy Eabs Exp ([2]; C6H6): 2.172 eV
- Emission energy Eem Exp ([2]; C6H6): 2.056 eV
- Absorption energy Eabs Exp ([2]; MeOH): 2.116 eV
- Emission energy Eem Exp ([2]; MeOH): 2.016 eV
- Absorbance λmax ([2]; Methanol (MeOH)): 586 nm
- Emission λmax ([2]; Methanol (MeOH)): 615 nm
- Extinction coefficient ε ([2]; Methanol (MeOH)): 143000
- Fluorescence quantum yield Φ ([2]; Methanol (MeOH)): 0.03
- Observed absorption (ε) ([2]; Table 10, BuOH): (134000)
- Observed absorption λmax ([2]; Table 10, BuOH): 587 nm
- Observed absorption (ε) ([2]; Table 10, C6H6): (109000)
- Observed absorption λmax ([2]; Table 10, C6H6): 571 nm
- Observed absorption (ε) ([2]; Table 10, DMF): (143000)
- Observed absorption λmax ([2]; Table 10, DMF): 586 nm
- Observed absorption (ε) ([2]; Table 10, MeOH): (143000)
- Observed absorption λmax ([2]; Table 10, MeOH): 586 nm
- Observed absorption (ε) ([2]; Table 10, OcOH): (125000)
- Observed absorption λmax ([2]; Table 10, OcOH): 587 nm
- Absorption Exp wavelength ([2]; Table 12, C6H6): 571 nm
- Absorption Exp wavelength ([2]; Table 12, MeOH): 586 nm
- Observed emission (Φ) ([2]; Table 15, BuOH): 0.54
- Observed emission λmax ([2]; Table 15, BuOH): 618 nm
- Observed emission (Φ) ([2]; Table 15, C6H6): 0.42
- Observed emission λmax ([2]; Table 15, C6H6): 603 nm
- Observed emission (Φ) ([2]; Table 15, DMF): 0.97
- Observed emission λmax ([2]; Table 15, DMF): 615 nm
- Observed emission (Φ) ([2]; Table 15, MeOH): 0.08
- Observed emission λmax ([2]; Table 15, MeOH): 615 nm
- Observed emission (Φ) ([2]; Table 15, OcOH): 0.98
- Observed emission λmax ([2]; Table 15, OcOH): 617 nm
- Suppression of extinction coefficient by introduction of the cyano-group ([2]; in methanol): 62%
- kph * 10^6 (absolute rate of photobleaching) ([4]; C6H6): 1.11 s^−1
- kph(rel) (relative rate of photobleaching) ([4]; C6H6, with respect to standard I-SO in C6H6): 1.00
- kph * 10^6 (absolute rate of photobleaching) ([4]; MeOH): 0.53 s^−1
- kph(rel) (relative rate of photobleaching) [4, 6]: 1.56
- Absorption wavelength shift [5]: 15 nm
- Emission wavelength shift [5]: 12 nm
